Tested on: Metabolism protein genes
Assay: DNA chip mRNA expression in yeast, metabolism protein genes (Table 7)
Assay type: cell-based, Saccharomyces cerevisiae S288C
How it was run: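 Measured as treated-to-untreated fluorescence ratio on a full-genome yeast DNA chip. Cells (S288C, YPD, 25° C.) were exposed in log phase for two hours to one chemical, dosed to curb growth without killing.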

In the case of `[Cl][Pb][Cl]` [(4), PbCl2], the “The level of expressed mRNA in the presence of chemical substance/The level of expressed mRNA in the absence of chemical substance” value (yeast gene YAL012W) is reported as 0.8, the “The level of expressed mRNA in the presence of chemical substance/The level of expressed mRNA in the absence of chemical substance” value (yeast gene YAL038W) is reported as 1.4 and the “level of expressed mRNA in the presence/in the absence of chemical substance” value (yeast gene YBR003W) is reported as 1.9. The “level of expressed mRNA in the presence/in the absence of chemical substance” value (yeast gene YBR011C) was 1.1, the “level of expressed mRNA in the presence/in the absence of chemical substance” value (yeast gene YBR020W) was 1.9 and the “The level of expressed mRNA in the presence of chemical substance/The level of expressed mRNA in the absence of chemical substance” value (yeast gene YBR023C) was 1.1. For the same compound, the “The level of expressed mRNA in the presence of chemical substance/The level of expressed mRNA in the absence of chemical substance” value (yeast gene YBR029C) was 1.0, the “The level of expressed mRNA in the presence of chemical substance/The level of expressed mRNA in the absence of chemical substance” value (yeast gene YBR183W) was 2.9 and the “The level of expressed mRNA in the presence of chemical substance/The level of expressed mRNA in the absence of chemical substance” value (yeast gene YBR222C) was 0.8. The “The level of expressed mRNA in the presence of chemical substance/The level of expressed mRNA in the absence of chemical substance” value (yeast gene YBR256C) was 1.3, the “The level of expressed mRNA in the presence of chemical substance/The level of expressed mRNA in the absence of chemical substance” value (yeast gene YCL009C) was 0.5 and the “The level of expressed mRNA in the presence of chemical substance/The level of expressed mRNA in the absence of chemical substance” value (yeast gene YCL064C) was 0.8. For the same compound, the “level of expressed mRNA in the presence/in the absence of chemical substance” value (yeast gene YCR010C) was 4.2, the “level of expressed mRNA in the presence/in the absence of chemical substance” value (yeast gene YCR034W) was 0.9 and the “The level of expressed mRNA in the presence of chemical substance/The level of expressed mRNA in the absence of chemical substance” value (yeast gene YCR048W) was 0.6. For the same compound, the “The level of expressed mRNA in the presence of chemical substance/The level of expressed mRNA in the absence of chemical substance” value (yeast gene YCR098C) was 2.0, the “The level of expressed mRNA in the presence of chemical substance/The level of expressed mRNA in the absence of chemical substance” value (yeast gene YDR019C) was 4.0 and the “level of expressed mRNA in the presence/in the absence of chemical substance” value (yeast gene YDR050C) was 1.8. The “level of expressed mRNA in the presence/in the absence of chemical substance” value (yeast gene YDR073W) was 1.4, the “level of expressed mRNA in the presence/in the absence of chemical substance” value (yeast gene YDR123C) was 2.1 and the “level of expressed mRNA in the presence/in the absence of chemical substance” value (yeast gene YDR178W) was 2.2. For the same compound, the “level of expressed mRNA in the presence/in the absence of chemical substance” value (yeast gene YDR277C) was 3.0, the “level of expressed mRNA in the presence/in the absence of chemical substance” value (yeast gene YDR284C) was 2.9 and the “level of expressed mRNA in the presence/in the absence of chemical substance” value (yeast gene YDR345C) was 2.6. For the same compound, the “The level of expressed mRNA in the presence of chemical substance/The level of expressed mRNA in the absence of chemical substance” value (yeast gene YDR380W) was 1.7, the “level of expressed mRNA in the presence/in the absence of chemical substance” value (yeast gene YDR400W) was 0.7 and the “level of expressed mRNA in the presence/in the absence of chemical substance” value (yeast gene YDR408C) was 4.1. The “level of expressed mRNA in the presence/in the absence of chemical substance” value (yeast gene YDR483W) was 2.0, the “The level of expressed mRNA in the presence of chemical substance/The level of expressed mRNA in the absence of chemical substance” value (yeast gene YDR497C) was 1.3 and the “The level of expressed mRNA in the presence of chemical substance/The level of expressed mRNA in the absence of chemical substance” value (yeast gene YDR502C) was 1.2. The “The level of expressed mRNA in the presence of chemical substance/The level of expressed mRNA in the absence of chemical substance” value (yeast gene YDR516C) was 2.1, the “level of expressed mRNA in the presence/in the absence of chemical substance” value (yeast gene YEL063C) was 1.3 and the “level of expressed mRNA in the presence/in the absence of chemical substance” value (yeast gene YER015W) was 1.5. For the same compound, the “The level of expressed mRNA in the presence of chemical substance/The level of expressed mRNA in the absence of chemical substance” value (yeast gene YER026C) was 1.0, the “The level of expressed mRNA in the presence of chemical substance/The level of expressed mRNA in the absence of chemical substance” value (yeast gene YER053C) was 1.7 and the “The level of expressed mRNA in the presence of chemical substance/The level of expressed mRNA in the absence of chemical substance” value (yeast gene YER069W) was 1.4. The “level of expressed mRNA in the presence/in the absence of chemical substance” value (yeast gene YER081W) was 1.4, the “The level of expressed mRNA in the presence of chemical substance/The level of expressed mRNA in the absence of chemical substance” value (yeast gene YER096W) was 2.0 and the “level of expressed mRNA in the presence/in the absence of chemical substance” value (yeast gene YER120W) was 0.8. For the same compound, the “The level of expressed mRNA in the presence of chemical substance/The level of expressed mRNA in the absence of chemical substance” value (yeast gene YER178W) was 1.0, the “level of expressed mRNA in the presence/in the absence of chemical substance” value (yeast gene YFL011W) was 3.3 and the “The level of expressed mRNA in the presence of chemical substance/The level of expressed mRNA in the absence of chemical substance” value (yeast gene YFL014W) was 11.0. The “The level of expressed mRNA in the presence of chemical substance/The level of expressed mRNA in the absence of chemical substance” value (yeast gene YFL030W) was 2.0, the “The level of expressed mRNA in the presence of chemical substance/The level of expressed mRNA in the absence of chemical substance” value (yeast gene YFL031W) was 0.7 and the “The level of expressed mRNA in the presence of chemical substance/The level of expressed mRNA in the absence of chemical substance” value (yeast gene YFL056C) was 1.5. For the same compound, the “The level of expressed mRNA in the presence of chemical substance/The level of expressed mRNA in the absence of chemical substance” value (yeast gene YFL057C) was 1.8, the “The level of expressed mRNA in the presence of chemical substance/The level of expressed mRNA in the absence of chemical substance” value (yeast gene YFR047C) was 2.6 and the “level of expressed mRNA in the presence/in the absence of chemical substance” value (yeast gene YGL012W) was 1.2. The “The level of expressed mRNA in the presence of chemical substance/The level of expressed mRNA in the absence of chemical substance” value (yeast gene YGL022W) was 0.3, the “level of expressed mRNA in the presence/in the absence of chemical substance” value (yeast gene YGL115W) was 2.0 and the “The level of expressed mRNA in the presence of chemical substance/The level of expressed mRNA in the absence of chemical substance” value (yeast gene YGL126W) was 0.8. For the same compound, the “level of expressed mRNA in the presence/in the absence of chemical substance” value (yeast gene YGL205W) was 0.8, the “The level of expressed mRNA in the presence of chemical substance/The level of expressed mRNA in the absence of chemical substance” value (yeast gene YGL209W) was 2.6 and the “The level of expressed mRNA in the presence of chemical substance/The level of expressed mRNA in the absence of chemical substance” value (yeast gene YGL248W) was 0.7. For the same compound, the “The level of expressed mRNA in the presence of chemical substance/The level of expressed mRNA in the absence of chemical substance” value (yeast gene YGR037C) was 0.8, the “The level of expressed mRNA in the presence of chemical substance/The level of expressed mRNA in the absence of chemical substance” value (yeast gene YGR055W) was 0.7 and the “level of expressed mRNA in the presence/in the absence of chemical substance” value (yeast gene YGR096W) was 4.6. The “level of expressed mRNA in the presence/in the absence of chemical substance” value (yeast gene YGR191W) was 1.5, the “The level of expressed mRNA in the presence of chemical substance/The level of expressed mRNA in the absence of chemical substance” value (yeast gene YGR194C) was 2.1 and the “level of expressed mRNA in the presence/in the absence of chemical substance” value (yeast gene YGR204W) was 1.3. The “The level of expressed mRNA in the presence of chemical substance/The level of expressed mRNA in the absence of chemical substance” value (yeast gene YGR256W) was 0.8, the “The level of expressed mRNA in the presence of chemical substance/The level of expressed mRNA in the absence of chemical substance” value (yeast gene YGR282C) was 1.9 and the “level of expressed mRNA in the presence/in the absence of chemical substance” value (yeast gene YGR288W) was 2.6. For the same compound, the “level of expressed mRNA in the presence/in the absence of chemical substance” value (yeast gene YHR025W) was 0.6, the “The level of expressed mRNA in the presence of chemical substance/The level of expressed mRNA in the absence of chemical substance” value (yeast gene YHR111W) was 1.9 and the “level of expressed mRNA in the presence/in the absence of chemical substance” value (yeast gene YHR123W) was 1.0. The “The level of expressed mRNA in the presence of chemical substance/The level of expressed mRNA in the absence of chemical substance” value (yeast gene YHR137W) was 1.7, the “The level of expressed mRNA in the presence of chemical substance/The level of expressed mRNA in the absence of chemical substance” value (yeast gene YHR174W) was 1.2 and the “The level of expressed mRNA in the presence of chemical substance/The level of expressed mRNA in the absence of chemical substance” value (yeast gene YHR176W) was 1.4. The “level of expressed mRNA in the presence/in the absence of chemical substance” value (yeast gene YHR210C) was 5.2, the “level of expressed mRNA in the presence/in the absence of chemical substance” value (yeast gene YIL006W) was 2.9 and the “The level of expressed mRNA in the presence of chemical substance/The level of expressed mRNA in the absence of chemical substance” value (yeast gene YIL045W) was 2.2. The “The level of expressed mRNA in the presence of chemical substance/The level of expressed mRNA in the absence of chemical substance” value (yeast gene YIL107C) was 1.5, the “The level of expressed mRNA in the presence of chemical substance/The level of expressed mRNA in the absence of chemical substance” value (yeast gene YIL154C) was 0.8 and the “The level of expressed mRNA in the presence of chemical substance/The level of expressed mRNA in the absence of chemical substance” value (yeast gene YIL155C) was 3.7. For the same compound, the “The level of expressed mRNA in the presence of chemical substance/The level of expressed mRNA in the absence of chemical substance” value (yeast gene YIR034C) was 0.6, the “The level of expressed mRNA in the presence of chemical substance/The level of expressed mRNA in the absence of chemical substance” value (yeast gene YIR036C) was 1.8 and the “The level of expressed mRNA in the presence of chemical substance/The level of expressed mRNA in the absence of chemical substance” value (yeast gene YJL031C) was 1.3. For the same compound, the “The level of expressed mRNA in the presence of chemical substance/The level of expressed mRNA in the absence of chemical substance” value (yeast gene YJL068C) was 1.6, the “The level of expressed mRNA in the presence of chemical substance/The level of expressed mRNA in the absence of chemical substance” value (yeast gene YJL088W) was 0.5 and the “The level of expressed mRNA in the presence of chemical substance/The level of expressed mRNA in the absence of chemical substance” value (yeast gene YJL099W) was 1.3. For the same compound, the “level of expressed mRNA in the presence/in the absence of chemical substance” value (yeast gene YJL121C) was 0.8, the “level of expressed mRNA in the presence/in the absence of chemical substance” value (yeast gene YJL167W) was 1.1 and the “The level of expressed mRNA in the presence of chemical substance/The level of expressed mRNA in the absence of chemical substance” value (yeast gene YJL172W) was 1.5. The “level of expressed mRNA in the presence/in the absence of chemical substance” value (yeast gene YJL216C) was 0.9, the “The level of expressed mRNA in the presence of chemical substance/The level of expressed mRNA in the absence of chemical substance” value (yeast gene YJL219W) was 1.6 and the “level of expressed mRNA in the presence/in the absence of chemical substance” value (yeast gene YJR077C) was 1.6. The “The level of expressed mRNA in the presence of chemical substance/The level of expressed mRNA in the absence of chemical substance” value (yeast gene YJR137C) was 0.8, the “level of expressed mRNA in the presence/in the absence of chemical substance” value (yeast gene YJR143C) was 0.8 and the “The level of expressed mRNA in the presence of chemical substance/The level of expressed mRNA in the absence of chemical substance” value (yeast gene YJR148W) was 3.5.
